Measurements: PubChem BioAssay AID2743 (NMMLSC, 2010)
“And” between values parts separate entries of the source, which are not always exact repeats. Identical values can stand only once. The source made the active and inactive calls.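 How the source made its calls: active means fitted half-maximal concentration for change in GFP expression of 33 µM or less; inactive means the rest.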

Experiment: potency of AGP1-GFP expression modulators in yeast, dose response, cell-based, flow cytometry, S. cerevisiae, MLPCN hits (AID 2743)
Details: S. cerevisiae AGP1-GFP strain, flow cytometry GFP, 3 h; at 33 µM (top of the series)

SMILES	GFP fluorescence (kMESF)
N#Cc1nccnc1S(=O)(=O)c1cccs1	38.7 kMESF (inactive)
Cc1ccccc1N=Nc1ccc(O)c2ncccc12	31.9 kMESF (inactive)
COc1ccc(/C=C/C(=O)c2cc(Br)ccc(=O)c2O)cc1	-39.3 kMESF (inactive)
O=C(O)c1cccc(S(=O)(=O)Nc2ccc(S(=O)(=O)N3CCOCC3)cc2)c1	36.9 kMESF (inactive)
O=C1N(c2ccccc2C(F)(F)F)O[C@@]1(c1ccccc1)C1CCCCC1	36.2 kMESF (inactive)
Cc1ccc(/C=C2/C(=O)ON=C2c2ccccc2)o1	40.1 kMESF (inactive)
COc1cccc2c(=O)c(C(=O)NCc3cccs3)c[nH]c12	35.4 kMESF (inactive)
Cc1ccc(C(=O)/C=C/C(=O)c2ccc(C)cc2)cc1	43.8 kMESF (inactive)
COc1ccccc1N=Nc1ccc(O)c2ncccc12	49.5 kMESF (inactive)
O=[N+]([O-])c1cc(S(=O)(=O)C(F)(F)F)ccc1Sc1nc2ccccc2s1	39.1 kMESF (inactive)
O=C(Nc1cccc(C(F)(F)F)c1)Oc1ccc(Cl)c2cccnc12	31.6 kMESF (inactive)
Cc1sc(/C=C2\C(=O)ON=C2c2ccccc2)cc1Br	34 kMESF (inactive)
COc1ccc(C2(C)ON(c3ccccc3C(F)(F)F)C2=O)cc1 (stereo not given)	36.5 kMESF (inactive)
CSc1nnc2c3cc(F)ccc3n(C)c2n1	25.3 kMESF (inactive)
Cc1ccc(C(CC(=O)O)NC(=O)c2ccc(S(=O)(=O)N3CC(C)OC(C)C3)cc2)cc1 (stereo not given)	36.9 kMESF (inactive)
CCc1ccc(C(=O)/C=C/c2ccc([N+](=O)[O-])o2)cc1	49.5 kMESF (inactive)
Cc1cc(O)c(C(=O)/C=C/c2ccc(Cl)cc2)c(=O)o1	40.1 kMESF (inactive)
Nc1nc(N)c2nc(CNc3ccc(C(=O)NC(CCC(=O)O)C(=O)O)cc3)cnc2n1 (stereo not given)	46 kMESF (inactive)
CCSc1nnc(NC(=O)c2ccccn2)s1	39.6 kMESF (inactive)
CC(C)(C)c1ccc(NC(=O)COC(=O)c2ccc([N+](=O)[O-])s2)cc1	14.7 kMESF (inactive)
O=C1N(c2ccccc2C(F)(F)F)O[C@]1(c1ccccc1)C1CCCC1	32.8 kMESF (inactive)
Oc1ccc2ccccc2c1/C=N/Nc1nnc(-c2ncc[nH]2)c2ccccc12	21.8 kMESF (inactive)

SMILES	GFP fluorescence (kMESF)
CCCCNc1c2c3c(cccc3n(C)c1=O)C(=O)c1ccccc1-2	36.3 kMESF (inactive)
O=[N+]([O-])c1ccc(O)c2ncccc12	39.4 kMESF (inactive) and 32.2 kMESF (inactive)
O=C(/C=C/c1cccc(Cl)c1)c1nc2ccccc2[nH]1	29.7 kMESF (inactive)
O=C(Nc1ccc(N2CCOCC2)cc1)C1CCN(S(=O)(=O)c2ccc3c(c2)OCCO3)CC1	34 kMESF (inactive)
CCOC(=O)CSC1=NC(=O)/C(=C\c2ccc(Cl)cc2)S1	41.8 kMESF (inactive)
C#CCOc1c(Br)cc(/C=C2/C(=O)ON=C2C)cc1OC	27.6 kMESF (inactive)
O=C1c2ccccc2C(=O)N1OS(=O)(=O)c1ccccc1	29.6 kMESF (inactive)
O=[N+]([O-])c1cnc(Sc2ccncn2)s1	33.9 kMESF (inactive)
CC1=NNC(=O)/C1=C\c1cn(-c2ccccc2)nc1-c1cccs1	37.3 kMESF (inactive)
COc1ccc([C@]2(C(C)C)ON(c3ccccc3C(F)(F)F)C2=O)cc1	38.8 kMESF (inactive)
O=C(NOC(=O)c1ccccc1)c1ccccc1	25.9 kMESF (inactive)
CCN1/C(=C/c2ccc3cc(C)ccc3[n+]2CC)Sc2ccc3sccc3c21	43.3 kMESF (inactive)
O=C(/C=C/c1ccccn1)c1cc(Br)ccc1O	37.3 kMESF (inactive)
COc1ccc(Cl)cc1C(Nc1cccnc1)c1ccc2cccnc2c1O (stereo not given)	36.3 kMESF (inactive)
COc1ccccc1N1C(=O)c2cccc3c(C(=O)O)ccc(c23)C1=O	49 kMESF (inactive)
COc1ccc(N2CCN(C(=O)c3ccccc3)CC2)c([N+](=O)[O-])c1	40.6 kMESF (inactive)
Cc1ccc(/C(N)=N/OC(=O)c2ccc(F)cc2)cc1	23.1 kMESF (inactive)
Cc1cc(C2CCCCC2)n(O)c(=O)c1	37.5 kMESF (inactive)
CCC(=O)Nc1ccc(NC(=O)c2cc3ccccc3o2)c(OC)c1	44.6 kMESF (inactive)
O=[N+]([O-])c1ccc(O)c(/C=N/Nc2ccccn2)c1	30.3 kMESF (inactive)
COc1ccccc1-c1nc2s/c(=C\c3cccs3)c(=O)n2n1	27.7 kMESF (inactive)
C#CCOCCOCCOCCNc1nc(N2CCN(C(=O)CCCCCCCCCCNC(=O)[C@H](CCCCN)n3cc(CCO)nn3)CC2)nc(N2CCN(C(=O)CCCCCCCCCCNC(=O)[C@H](CCCCN)n3cc(C[C@@H](C)CC)nn3)CC2)n1	51.4 kMESF (inactive)

SMILES	GFP fluorescence (kMESF)
Oc1ccc(N=Nc2ccccc2)o1	49 kMESF (inactive)
COc1ccc(C(=O)NNC(=S)NC(=O)/C=C/c2cccs2)cc1	52.8 kMESF (inactive)
COC(=O)CCCC1=CC2=CC(=O)C(C)(OC(=O)CCc3ccccc3)C(=O)C2=CO1 (stereo not given)	29.2 kMESF (inactive)
O=C(Nc1ccc(NC(=O)c2cc3ccccc3o2)cc1)c1ccc2c(c1)OCCO2	42.8 kMESF (inactive)
COc1ccccc1OCCCc1c(C)n[nH]c1C	31.1 kMESF (inactive)
C[C@@H]1C[C@@H]([C@H](O)CC2CC(=O)NC(=O)C2)C(=O)[C@@H](C)C1	26.8 kMESF (inactive)
O=C(CCc1ccccc1)NNC(=S)NC(=O)c1ccccc1	50.8 kMESF (inactive)
C=CCn1c(C)c(/C=C/c2cc[n+](C)cc2)c2ccccc21	42.5 kMESF (inactive)
O=C1N(c2ccccc2C(F)(F)F)OC1(Cc1ccccc1)c1ccccc1 (stereo not given)	41.5 kMESF (inactive)
O=c1[nH]c(-c2ccc(Cl)cc2)cs1	39.4 kMESF (inactive)
O=c1c2cc(Br)ccc2nc(-c2ccc([N+](=O)[O-])cc2)n1O	29.6 kMESF (inactive)
O=C(O)c1ccccc1SC1CC(=O)N(c2ccc3c(c2)OCO3)C1=O (stereo not given)	47.9 kMESF (inactive)
CCOc1ccc(C(Nc2cccnc2)c2cc(Cl)c3cccnc3c2O)cc1 (stereo not given)	36.3 kMESF (inactive)
Cc1cccc(N2C(=O)C(Cl)=C(Nc3c(C)n(C)n(-c4ccccc4)c3=O)C2=O)c1C	43.3 kMESF (inactive)
CCN(CC)c1ccc2cc(-c3nc(-c4ccc(OC)cc4)cs3)c(=O)oc2c1	40.6 kMESF (inactive)
Cc1cccc(OCCN2CSC(=S)N(C)C2)c1	46.6 kMESF (inactive)
Cc1ccc(/C=C2\SC(=S)N(CC3CCCO3)C2=O)o1 (stereo not given)	42 kMESF (inactive)
Oc1c(I)cc(Cl)c2cccnc12	25 kMESF (inactive)
COc1cccc(/C=C/C(=O)c2c(O)cc(C)oc2=O)c1O	43.2 kMESF (inactive)
COc1cc(/C=C2/C(=O)c3cccc([N+](=O)[O-])c3C2=O)c(Br)cc1O	32.9 kMESF (inactive)
Cc1ccccc1[C@]1(C)ON(c2ccccc2C(F)(F)F)C1=O	34.6 kMESF (inactive)
